Data published in US12496297B1, “Compositions of autophagy modulating agents and uses thereof” (Washington University, priority 2020, dated 2025).

Tested on: α1-antitrypsin Z variant (ATZ)
Test: Steady state levels of ATZ in HTO/Z cell line (immunoblot); activity of G2 analogs
Format: cell-based, human
Details: G2 and G2 analogs; positive activity if shown to have any activity, not quantified
Method: For experiments with G2 analogs, Tet-off inducible cell lines were cultured in absence of doxycycline for at least 12 days to ensure expression of […] or its variants. The cells were then sub-cultured into separate monolayers in fresh complete growth medium and incubated for 48 hours in the absence or presence of G2 analog. […] All compounds available commercially were purchased except for G2-22, which was synthesized with routine chemistry.
Cells were lysed in NP40 buffer and then separated into insoluble and soluble fractions according to a previously established technique. Samples were subjected to immunoblot analysis for AT and GAPDH. For immmunoblot analysis to detect AT or GAPDH, cells were lysed in 50 mM Tris-HCl, 150 mM NaCl, 1% NP-40, pH 8.0. Protein concentrations were determined by BCA protein assay (Pierce Biotechnology, Rockford, IL). […] The membranes were blocked in 5% milk and then incubated overnight at 4° C. with primary antibody for AT (1:1000, Diasorin), LC3 (1:2000, Sigma), p62 (1:1000, Cell signaling, Danvers, MA), ATG5 (1:1000, Cell signaling), mTOR substrate sampler (1:1000 for all antibodies, Cell signaling). Donkey anti-goat Ig (Jackson Labs, Bar Harbor, ME), goat anti-rabbit lg (1:50,000), or goat anti-mouse Ig (1:50,000) were used as secondary antibodies in TBST at RT, 1 hour. Blots were visualized with ECL or West Femto from Pierce. Membranes were re-probed with GAPDH (1:5000, Sigma) as loading control. Insoluble samples were stained with Gel Code Blue as loading control.

Structure (SMILES) | Activity
CNC(=O)c1cc(Cl)ccc1OC [G2-3, 5-chloro-2-methoxy-N-methylbenzamide] | Active
CNC(=O)c1cc(F)ccc1OC [G2-4, 5-fluoro-2-methoxy-N-methylbenzamide] | Inactive
NC(=O)c1cc(Cl)ccc1OC(F)(F)F [G2-6, 5-chloro-2-(trifluoromethoxy)benzamide] | Inactive
CN1CCNC(=O)c2cc(Cl)ccc21 [G2-11, 7-chloro-1-methyl-1,2,3,4-tetrahydro-5H-benzo[e][1,4]diazepin-5-one] | Inactive
CNC(=O)c1cc(Cl)ccc1OC1CC1 [G2-12, 5-chloro-2-cyclopropoxy-N-methylbenzamide] | Active
CNC(=O)c1cc(Cl)ccc1OC1CCN(C2CCCC2)CC1 [G2-12-2, 5-chloro-2-((1-cyclopentylpiperidin-4-yl)oxy)-N-methylbenzamide] | Inactive
CNC(=O)c1cc(Cl)ccc1OCc1ccccc1 [G2-12-3, 2-(benzyloxy)-5-chloro-N-methylbenzamide] | Inactive
COc1ccc(Cl)cc1C(=O)N(C)C [G2-13, 5-chloro-2-methoxy-N,N-dimethylbenzamide] | Active
COc1ccc(Cl)cc1C(=O)NCC(C)C [G2-14, 5-chloro-N-isobutyl-2-methoxybenzamide] | Inactive
COc1ccc(Cl)cc1C(=O)NCCCCO [G2-15, 5-chloro-N-(4-hydroxybutyl)-2-methoxybenzamide] | Inactive
CNC(=O)c1cc(Cl)ccc1Oc1ccc(Cl)cc1 [G2-16, 5-chloro-2-(4-chlorophenoxy)-N-methylbenzamide] | Inactive
CNC(=O)c1cc(Cl)ccc1OCCC(C)C [G2-17, 5-chloro-2-(isopentyloxy)-N-methylbenzamide] | Inactive
Cn1ccc2c(Cl)cccc2c1=O [G2-22, 5-chloro-2-methylisoquinolin-1(2H)-one] | Active
Cn1ccc2ccc(Cl)cc2c1=O [G2-23, 7-chloro-2-methylisoquinolin-1(2H)-one] | Inactive
Cn1ccc2cccc(Cl)c2c1=O [G2-24, 8-chloro-2-methylisoquinolin-1(2H)-one] | Inactive
O=c1[nH]ccc2cc(Cl)ccc12 [G2-25, 6-chloroisoquinolin-1(2H)-one] | Active
Cn1cnc2cc(Cl)ccc2c1=O [G2-27, 7-chloro-3-methylquinazolin-4(3H)-one] | Inactive
CN1Cc2cc(Cl)ccc2C1=O [G2-28, 5-chloro-2-methylisoindolin-1-one] | Active
Cn1ccc2cc(S(C)(=O)=O)ccc2c1=O [G2-29, 2-methyl-6-(methylsulfonyl)isoquinolin-1(2H)-one] | Active
COc1ccc2c(=O)n(C)ccc2c1 [G2-30, 6-methoxy-2-methylisoquinolin-1(2H)-one] | Active
Cn1ccc2cc(C#N)ccc2c1=O [G2-31, 2-methyl-1-oxo-1,2-dihydroisoquinoline-6-carbonitrile] | Inactive
Cn1ccc2ccccc2c1=O [G2-34, 2-methylisoquinolin-1(2H)-one] | Inactive
Cn1c(=O)ccc2cc(Cl)ccc21 [G2-37, 6-chloro-1-methylquinolin-2(1H)-one] | Active
Cc1cn(C)c(=O)c2ccc(Cl)cc12 [G2-38, 6-chloro-2,4-dimethylisoquinolin-1(2H)-one] | Inactive

Structure (SMILES) | Activity
Cn1ccc2cc(-c3ccccn3)ccc2c1=O [G2-39, 2-methyl-6-(pyridin-2-yl)isoquinolin-1(2H)-one] | Inactive
CNC(=O)c1cccc(Cl)c1OC [G2-40, 3-chloro-2-methoxy-N-methylbenzamide] | Inactive
Cn1ccc2cc(-c3ccccc3)ccc2c1=O [G2-41, 2-methyl-6-phenylisoquinolin-1(2H)-one] | Active
Cn1ccc2cc(-c3ccncc3)ccc2c1=O [G2-42, 2-methyl-6-(pyridin-4-yl)isoquinolin-1(2H)-one] | Active
Cn1ccc2cc(-c3cccnc3)ccc2c1=O [G2-43, 2-methyl-6-(pyridin-3-yl)isoquinolin-1(2H)-one] | Inactive
CN(C)c1ccc2c(=O)n(C)ccc2c1 [G2-44, 6-(dimethylamino)-2-methylisoquinolin-1(2H)-one] | Inactive
Cn1ccc2cc(N3CCCC3)ccc2c1=O [G2-45, 2-methyl-6-(pyrrolidin-1-yl)isoquinolin-1(2H)-one] | Active
Cn1ccc2cc(N3CC4(COC4)C3)ccc2c1=O [G2-46, 2-methyl-6-(2-oxa-6-azaspiro[3.3]heptan-6-yl)isoquinolin-1(2H)-one] | Inactive
Cn1ccc2cc(Nc3ccccc3)ccc2c1=O [G2-47, 2-methyl-6-(phenylamino)isoquinolin-1(2H)-one] | Inactive
CN(c1ccccc1)c1ccc2c(=O)n(C)ccc2c1 [G2-48, 2-methyl-6-(methyl(phenyl)amino)isoquinolin-1(2H)-one] | Active
Cn1ccc2cc(Nc3ccccn3)ccc2c1=O [G2-49, 2-methyl-6-(pyridin-2-ylamino)isoquinolin-1(2H)-one] | Inactive
Cn1ncc2cc(Cl)ccc2c1=O [G2-51, 6-chloro-2-methylphthalazin-1(2H)-one] | Active
CCn1ccc2cc(Cl)ccc2c1=O [G2-52, 6-chloro-2-ethylisoquinolin-1(2H)-one] | Inactive
O=c1c2ccc(Cl)cc2ccn1-c1ccccc1 [G2-53, 6-chloro-2-phenylisoquinolin-1(2H)-one] | Inactive
Cn1c(=O)ccc2ccc(Cl)cc21 [G2-54, 7-chloro-1-methylquinolin-2(1H)-one] | Active (Highly Active)
CNC(=O)c1ccc(Cl)cc1OC [G2-55, 4-chloro-2-methoxy-N-methylbenzamide] | Inactive
Cn1c(=O)ccc2cc(Cl)ccc21 [G2-58, 6-chloro-1-methylquinolin-2(1H)-one] | Inactive
Cn1ccc2cc(-c3ncccn3)ccc2c1=O [G2-59, 2-methyl-6-(pyrimidin-2-yl)isoquinolin-1(2H)-one] | Inactive
CCCCc1ccc2c(=O)n(C)ccc2c1 [G2-60, 6-butyl-2-methylisoquinolin-1(2H)-one] | Inactive
Cn1ccc2cc(N3CCCCC3)ccc2c1=O [G2-61, 2-methyl-6-(piperidin-1-yl)isoquinolin-1(2H)-one] | Inactive
Cn1ccc2cc(N3CCC(c4ccccc4)CC3)ccc2c1=O [G2-62, 2-methyl-6-(4-phenylpiperidin-1-yl)isoquinolin-1(2H)-one] | Inactive
Cn1ccc2cc(-c3ccc(Cl)cc3)ccc2c1=O [G2-63, 6-(4-chlorophenyl)-2-methylisoquinolin-1(2H)-one] | Inactive
Cn1ccc2cc(-c3ccn[nH]3)ccc2c1=O [G2-65, 2-methyl-6-(1H-pyrazol-5-yl)isoquinolin-1(2H)-one] | Inactive
Cn1ccc2cc(S(N)(=O)=O)ccc2c1=O [G2-67, 2-methyl-1-oxo-1,2-dihydroisoquinoline-6-sulfonamide] | Inactive
